Measurements published in ChEMBL document CHEMBL3227996, “New bronchodilators. Synthesis and bronchodilating activity of some 3-(alkoxymethyl)-alpha-(N-substituted aminomethyl)-4-hydroxybenzyl alcohols” (1979).

Legend:
Assay type in all cases: functional
Cavia porcellus [1] = assay: Inhibition of histamine-induced asthma-like syndrome in guinea pig assessed as time delay in appearance of anoxia at 5 mg/kg, po treated 30 mins before histamine challenge (reference value: 5.08 mins)
Cavia porcellus [2] = assay: Inhibition of histamine-induced asthma-like syndrome in guinea pig assessed as time delay in appearance of coughing at 5 mg/kg, po treated 30 mins before histamine challenge (reference value: 6.13 mins)
Cavia porcellus [3] = assay: Inhibition of histamine-induced asthma-like syndrome in guinea pig assessed as time delay in appearance of coughing at 1.25 mg/kg, po treated 30 mins before histamine challenge (reference value: 6.13 mins)
Cavia porcellus [4] = assay: Inhibition of histamine-induced asthma-like syndrome in guinea pig assessed as time delay in appearance of anoxia at 1.25 mg/kg, po treated 30 mins before histamine challenge (reference value: 5.08 mins)
Cavia porcellus [5] = assay: Inhibition of histamine-induced airway resistance in guinea pig administered intravenously 3 mins before histamine challenge; settings: iv

Compound	Time (Cavia porcellus [1])	Time (Cavia porcellus [2])	Time (Cavia porcellus [3])	Time (Cavia porcellus [4])	ED50 (Cavia porcellus [5])
COCCOCc1cc(C(O)CNC(C)C)ccc1O.Cl (configuration not stated)	8.8 min	9.7 min	–	–	–
CCOCc1cc(C(O)CNC(C)(C)C)ccc1O.Cl (configuration not stated)	–	–	14.85 min	14.55 min	–
COCc1cc(C(O)CNC(C)(C)C)ccc1O.Cl (configuration not stated)	–	–	20 min	17.17 min	–
COCc1cc(C(O)CNC(C)Cc2ccc3c(c2)OCO3)ccc1O.O=C(O)C(=O)O (configuration not stated)	–	–	12.05 min	10.43 min	–
CCOCc1cc(C(O)CNC(C)C)ccc1O.Cl (configuration not stated)	9.23 min	14.03 min	–	–	–
CCOCc1cc(C(O)CNC(C)(C)Cc2ccccc2)ccc1O.Cl (configuration not stated)	15.98 min	16.08 min	–	–	–
COCc1cc(C(O)CNC(C)Cc2ccc(O)cc2)ccc1O.O=C(O)C(=O)O (configuration not stated)	–	–	20 min	19.97 min	–
CC(C)NCC(O)c1ccc(O)c(O)c1 (configuration not stated) [ISOPROTERENOL]	12.71 min	17.67 min	8.02 min	6.82 min	–
COCc1cc(C(O)CNC(C)Cc2ccc(OC)cc2)ccc1O.O=C(O)/C=C/C(=O)O (configuration not stated)	–	–	20 min	19.1 min	2.75 µg/kg
COCc1cc(C(O)CNC(C)Cc2ccccc2)ccc1O.Cl (configuration not stated)	9.61 min	11.65 min	–	–	–
COCCOCc1cc(C(O)CNC(C)(C)C)ccc1O.Cl (configuration not stated)	13.8 min	15.18 min	7.88 min	6.75 min	–
CCOCCOCc1cc(C(O)CNC(C)(C)C)ccc1O.Cl (configuration not stated)	8.97 min	14.08 min	11.81 min	10.58 min	–
COCc1cc(C(O)CNC(C)(C)C)cc(COC)c1O.Cl (configuration not stated)	–	–	7.78 min	7.35 min	–
COCc1cc(C(O)CNC(C)(C)Cc2ccccc2)ccc1O.Cl (configuration not stated)	11.35 min	11.83 min	–	–	–
CC(C)(C)NCC(O)c1ccc(O)c(CO)c1 (configuration not stated) [ALBUTEROL]	17.22 min	19.13 min	9.68 min	8.1 min	–
CCOCc1cc(C(O)CNC(C)Cc2ccccc2)ccc1O.Cl (configuration not stated)	12.57 min	13.92 min	–	–	–
COCc1cc(C(O)CNC(C)C)ccc1O.Cl (configuration not stated)	10.38 min	15.25 min	–	–	–
CC(C)(C)NCC(O)c1ccc(O)c(COCCO)c1.Cl (configuration not stated)	4.98 min	5.97 min	–	–	–
COCc1cc(C(O)CNC(C)C)cc(COC)c1O.Cl (configuration not stated)	–	–	11 min	10.71 min	–
